This passage reports EC50, AC50 and IC50 results from ChEMBL document CHEMBL1201862, “PubChem BioAssay data set” (2004).

Assay [1] is described as follows: Trypanosoma cruzi growth suppression in host cells – NIH3T3 host cells, beta-gal luminescence, confirmation (AID 2044).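 Note: intracellular parasites grown in NIH/3T3 mouse fibroblasts as host cells; luminescent beta-galactosidase reporter signal from transgenic T. cruzi replicating inside host cells; inhibitors lower the luminescence signal.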 It counts as functional, cell-based.
A short description of assay [2]: NIH3T3 cell viability loss – ATP luminescence, mouse fibroblasts, counter-screen, dose response (AID 2010).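 Note: cells exposed to compound for about 90 hours before reading.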 The assay is classed as functional, cell-based.
Assay [3] deals with T1, Heat shock factor protein 1 (Mus musculus, UniProt P38532).
T1 sequence (P38532 whole entry): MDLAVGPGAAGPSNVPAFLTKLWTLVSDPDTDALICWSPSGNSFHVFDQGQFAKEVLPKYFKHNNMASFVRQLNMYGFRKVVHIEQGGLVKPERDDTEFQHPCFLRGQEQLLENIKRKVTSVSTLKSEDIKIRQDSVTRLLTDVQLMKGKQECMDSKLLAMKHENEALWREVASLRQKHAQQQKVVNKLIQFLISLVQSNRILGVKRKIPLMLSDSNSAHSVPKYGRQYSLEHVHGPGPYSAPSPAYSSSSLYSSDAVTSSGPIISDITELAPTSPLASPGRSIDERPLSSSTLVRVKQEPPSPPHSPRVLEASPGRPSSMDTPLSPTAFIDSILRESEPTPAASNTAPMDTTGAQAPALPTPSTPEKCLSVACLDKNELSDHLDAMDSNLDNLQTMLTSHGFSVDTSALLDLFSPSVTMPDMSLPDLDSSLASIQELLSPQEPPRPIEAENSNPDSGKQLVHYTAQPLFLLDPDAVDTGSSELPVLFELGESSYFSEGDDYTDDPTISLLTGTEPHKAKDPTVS
Kind of assay: enhancement of HSF1-driven luciferase signal – cell-based, NIH3T3, luminescence, dose retest, confirmation (AID 435004).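 Note: stress induced by proteasome inhibitor MG132 added 30 min after compound; luciferase reporter driven by HSF1 response element in NIH3T3 cells; actives raise luminescence as potentiators of the MG132 stress response.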 It counts as functional.

Another assay addresses Cytochrome P450 3A4 (Homo sapiens, UniProt P08684). Conditions: Potency.
The target in assay [4] is T2, Calpain-2 catalytic subunit (Sus scrofa, UniProt P43367).
T2 sequence (P43367 whole entry): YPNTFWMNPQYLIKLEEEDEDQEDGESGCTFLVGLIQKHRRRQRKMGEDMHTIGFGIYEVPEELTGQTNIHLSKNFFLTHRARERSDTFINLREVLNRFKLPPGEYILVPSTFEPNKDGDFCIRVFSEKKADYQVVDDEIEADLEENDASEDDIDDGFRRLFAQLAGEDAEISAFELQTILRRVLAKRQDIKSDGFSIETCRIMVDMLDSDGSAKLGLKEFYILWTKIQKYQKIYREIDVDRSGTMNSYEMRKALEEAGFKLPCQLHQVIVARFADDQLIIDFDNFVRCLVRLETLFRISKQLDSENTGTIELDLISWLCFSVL
Kind of assay: m-calpain protease blockers, concentration series – biochemical, fluorogenic peptide substrate, dose response (AID 1420). The assay is classed as functional.

The target of assay [5] is T3, Microphthalmia-associated transcription factor (Homo sapiens, UniProt O75030).
T3 sequence (O75030 whole entry): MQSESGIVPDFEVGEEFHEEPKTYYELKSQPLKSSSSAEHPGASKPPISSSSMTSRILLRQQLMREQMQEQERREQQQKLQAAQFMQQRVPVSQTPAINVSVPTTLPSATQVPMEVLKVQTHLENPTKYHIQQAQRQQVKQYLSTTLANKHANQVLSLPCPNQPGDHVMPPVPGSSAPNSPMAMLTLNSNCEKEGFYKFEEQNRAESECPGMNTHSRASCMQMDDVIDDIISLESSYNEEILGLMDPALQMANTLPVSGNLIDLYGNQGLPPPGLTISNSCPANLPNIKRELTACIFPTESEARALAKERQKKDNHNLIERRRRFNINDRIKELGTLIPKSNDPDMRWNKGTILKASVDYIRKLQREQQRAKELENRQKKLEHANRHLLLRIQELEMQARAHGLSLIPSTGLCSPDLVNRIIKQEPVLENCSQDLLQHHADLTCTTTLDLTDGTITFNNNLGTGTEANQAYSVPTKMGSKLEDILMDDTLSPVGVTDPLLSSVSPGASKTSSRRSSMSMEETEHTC
Kind of assay: reducers of TRPM1 reporter luminescence, concentration series – cell-based, SK-MEL-5, cherry-picked, set 3, MITF inhibitor project, dose response (AID 493073).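 Note: SK-MEL-5 melanoma cells with luciferase driven by the MITF target TRPM1 promoter.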 The assay is classed as functional.

Assay [6] deals with T4, Replicative DNA helicase DnaB (Mycobacterium tuberculosis, UniProt P9WMR3).
T4 sequence (P9WMR3 whole entry): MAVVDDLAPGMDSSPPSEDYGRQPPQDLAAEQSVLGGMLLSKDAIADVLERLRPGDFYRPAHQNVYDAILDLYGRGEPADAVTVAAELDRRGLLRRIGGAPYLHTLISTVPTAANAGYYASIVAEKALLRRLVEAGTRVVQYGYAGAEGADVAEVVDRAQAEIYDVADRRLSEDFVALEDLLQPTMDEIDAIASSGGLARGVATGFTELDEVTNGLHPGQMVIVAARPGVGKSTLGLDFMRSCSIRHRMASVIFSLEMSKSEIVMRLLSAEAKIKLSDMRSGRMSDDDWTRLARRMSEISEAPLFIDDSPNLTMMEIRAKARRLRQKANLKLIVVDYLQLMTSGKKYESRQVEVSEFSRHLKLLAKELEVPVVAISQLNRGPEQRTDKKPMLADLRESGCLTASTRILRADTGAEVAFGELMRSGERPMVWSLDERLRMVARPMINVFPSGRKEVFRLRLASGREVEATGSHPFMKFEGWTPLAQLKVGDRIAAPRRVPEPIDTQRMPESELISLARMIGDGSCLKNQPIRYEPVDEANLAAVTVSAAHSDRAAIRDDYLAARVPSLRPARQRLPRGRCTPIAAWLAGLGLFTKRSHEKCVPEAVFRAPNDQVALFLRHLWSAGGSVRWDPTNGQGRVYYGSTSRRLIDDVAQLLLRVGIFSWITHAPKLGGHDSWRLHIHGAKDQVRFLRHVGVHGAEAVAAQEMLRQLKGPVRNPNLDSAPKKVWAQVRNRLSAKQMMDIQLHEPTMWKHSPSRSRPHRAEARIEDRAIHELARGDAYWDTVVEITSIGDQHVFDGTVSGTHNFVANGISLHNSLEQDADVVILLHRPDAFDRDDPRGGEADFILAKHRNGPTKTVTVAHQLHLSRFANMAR
Kind of assay: DnaB intein splicing inhibitors, dose response, biochemical, cell-free fluorescence (AID 449749). The assay is classed as functional.

The next assay has as its target T5, Protein RecA (Mycobacterium tuberculosis, UniProt P9WHJ3).
T5 sequence (P9WHJ3 whole entry): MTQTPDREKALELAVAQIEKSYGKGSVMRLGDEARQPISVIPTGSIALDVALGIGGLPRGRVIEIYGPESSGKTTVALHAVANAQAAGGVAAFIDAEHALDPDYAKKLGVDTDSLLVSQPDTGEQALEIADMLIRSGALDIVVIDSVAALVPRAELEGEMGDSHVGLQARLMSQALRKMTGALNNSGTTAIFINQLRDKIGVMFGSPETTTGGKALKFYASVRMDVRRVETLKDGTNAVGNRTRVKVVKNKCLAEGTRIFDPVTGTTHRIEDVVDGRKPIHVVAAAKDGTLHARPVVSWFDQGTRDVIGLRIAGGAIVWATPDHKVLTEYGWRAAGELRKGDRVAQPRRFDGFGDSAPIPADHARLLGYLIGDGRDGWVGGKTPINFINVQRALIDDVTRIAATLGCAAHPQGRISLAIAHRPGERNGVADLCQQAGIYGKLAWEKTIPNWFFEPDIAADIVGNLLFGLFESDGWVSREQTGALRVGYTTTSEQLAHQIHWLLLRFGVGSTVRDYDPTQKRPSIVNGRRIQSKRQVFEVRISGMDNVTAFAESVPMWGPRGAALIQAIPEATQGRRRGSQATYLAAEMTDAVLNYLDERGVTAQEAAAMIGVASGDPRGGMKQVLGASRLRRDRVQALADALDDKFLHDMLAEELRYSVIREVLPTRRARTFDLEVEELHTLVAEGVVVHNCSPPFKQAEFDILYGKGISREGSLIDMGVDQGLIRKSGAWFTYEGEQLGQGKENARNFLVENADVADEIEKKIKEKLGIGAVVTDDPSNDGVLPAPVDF
Kind of assay: Fluorescence Cell-Free Homogeneous Dose Retest to Identify Inhibitors of RecA-Intein Splicing Activity. [Related pubchem assays (depositor defined):AID2097, AID2223, AID489010, AID492950]. It counts as functional.

The next assay has as its target Nonstructural protein 1 (Influenza A virus, UniProt Q194T2). It counts as functional, Influenza A virus (A/California/07/2009(H1N1)).
Assay [7] addresses T6, Rac GTPase-activating protein 1 (Homo sapiens, UniProt Q9H0H5).
T6 sequence (Q9H0H5 whole entry): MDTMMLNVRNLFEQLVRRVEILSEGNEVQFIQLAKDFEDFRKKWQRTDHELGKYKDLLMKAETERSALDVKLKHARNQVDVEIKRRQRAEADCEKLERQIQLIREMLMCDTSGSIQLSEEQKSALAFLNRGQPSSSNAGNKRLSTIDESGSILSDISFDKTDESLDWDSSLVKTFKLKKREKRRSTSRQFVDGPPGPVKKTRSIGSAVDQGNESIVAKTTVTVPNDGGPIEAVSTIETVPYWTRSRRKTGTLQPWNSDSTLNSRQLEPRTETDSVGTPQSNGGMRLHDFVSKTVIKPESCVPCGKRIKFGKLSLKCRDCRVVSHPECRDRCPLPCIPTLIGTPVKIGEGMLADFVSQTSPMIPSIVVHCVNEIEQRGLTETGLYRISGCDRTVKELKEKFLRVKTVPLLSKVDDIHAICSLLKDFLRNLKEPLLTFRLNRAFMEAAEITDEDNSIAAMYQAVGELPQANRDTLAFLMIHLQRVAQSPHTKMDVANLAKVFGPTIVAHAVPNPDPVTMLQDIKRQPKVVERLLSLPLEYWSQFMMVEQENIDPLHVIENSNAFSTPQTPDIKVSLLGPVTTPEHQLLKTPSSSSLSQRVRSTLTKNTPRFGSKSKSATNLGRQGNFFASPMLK
Kind of assay: blockers of MgcRacGAP-driven Rac1 GTP hydrolysis – biochemical, ADP Hunter fluorescence, primary and confirmatory, confirmation (AID 624330). It counts as functional.

Activity calls are given as the source filed them.

Cytochrome P450 3A4, sequence (P08684 whole entry): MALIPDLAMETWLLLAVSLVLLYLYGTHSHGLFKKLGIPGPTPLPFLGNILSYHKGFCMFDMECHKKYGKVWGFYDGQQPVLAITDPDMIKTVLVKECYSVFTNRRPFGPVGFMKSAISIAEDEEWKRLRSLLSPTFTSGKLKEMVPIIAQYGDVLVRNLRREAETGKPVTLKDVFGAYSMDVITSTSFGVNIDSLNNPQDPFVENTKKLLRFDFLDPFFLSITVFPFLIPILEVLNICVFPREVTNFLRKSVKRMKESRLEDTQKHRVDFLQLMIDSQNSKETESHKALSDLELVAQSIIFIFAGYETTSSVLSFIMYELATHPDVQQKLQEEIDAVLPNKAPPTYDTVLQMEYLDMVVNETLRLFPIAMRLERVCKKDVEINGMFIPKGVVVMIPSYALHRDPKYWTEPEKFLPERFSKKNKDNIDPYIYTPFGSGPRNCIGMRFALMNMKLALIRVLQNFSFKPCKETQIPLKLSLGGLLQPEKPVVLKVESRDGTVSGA
Nonstructural protein 1, sequence (Q194T2 whole entry): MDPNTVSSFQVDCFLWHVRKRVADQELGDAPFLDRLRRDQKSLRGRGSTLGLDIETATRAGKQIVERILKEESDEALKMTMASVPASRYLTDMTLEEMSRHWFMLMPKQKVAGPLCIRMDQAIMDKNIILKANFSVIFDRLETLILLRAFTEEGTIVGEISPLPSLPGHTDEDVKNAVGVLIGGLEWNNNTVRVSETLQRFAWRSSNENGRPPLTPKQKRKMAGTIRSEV

As usually defined, the EC50 is the concentration that produces a half-maximal response. Take `Fc1ccc(Sc2ccccc2CNC2=NCCN2)cc1`: the values for the EC50 in [1], in assay [2] and in assay [3] were 1.49 µM (active), > 60 µM (not active) and > 260 µM (inactive), respectively. The term AC50 denotes the midpoint of the concentration-response curve, whichever way the signal moves. On to `COCCNC(=O)[C@@]1(Cc2ccccc2)C=C[C@@H](C)N1C(C)=O`, for which, at Cytochrome P450 3A4, the half-maximal activity concentration (AC50) was 20 µM (inconclusive). A word on the IC50: it is the concentration that inhibits the measured activity by half. Consider `CCN1CCN(c2cc(C)c3cc(NC(S)=NCc4cccs4)ccc3n2)CC1`, for which the IC50 in [4] is 10 µM (not active). For `Cc1ccc(N)cc1[N+](=O)[O-]`, the AC50 on Cytochrome P450 3A4 is 31.6 µM (inconclusive). With `O=C(COC(=O)c1ccc(S(=O)(=O)NCc2ccco2)cc1)Nc1ccccc1OC(F)F`, the EC50 in [3] is > 260 µM (inactive). Take `CCC(C(=O)NC1CCCC1)N(Cc1ccco1)C(=O)Cn1nnc(-c2ccc(C)cc2)n1` (stereo not drawn): the IC50 in assay [4] is 16.3 µM (not active). As to `Cc1oc2c(c1C(=O)Nc1cccc3ccccc13)CCCC2`, in [4], the 50% inhibitory concentration (IC50) is reported as > 50 µM (not active).

Regarding `Nc1cc(Cl)cc(Cl)c1`, at Cytochrome P450 3A4, the AC50 is 31.6 µM (inconclusive). On to `CC(=O)Nc1cc(C(=O)N2CCN(C)CC2)ccc1S(=O)(=O)c1ccc(C)cc1`, for which the IC50 in [4] was 0.796 µM (not active). As to `CC1Cc2c(COc3ccccc3)nc3c(c2CO1)CN(CCOc1ccccc1)CC3` (stereo not drawn), the AC50 at Cytochrome P450 3A4 was 3.98 µM (inconclusive). In the case of `O=C1c2ccccc2C(=O)N1CCc1csc(-c2cccc(Cl)c2)n1`, the IC50 in assay [4] is 3.44 µM (not active). Take `Cc1ccc(C)c(S(=O)(=O)N2CCCCC2CCNC(=O)C(=O)NCCc2ccco2)c1` (stereo not drawn): the EC50 in assay [3] was > 260 µM (inactive).

Take `CN(Cc1cccc2cnccc12)C(=O)c1cc(COc2ccc(F)cc2F)on1`: the EC50 in assay [3] was > 260 µM (inactive). For `O=C(COC(=O)/C=C/c1cccc([N+](=O)[O-])c1)NCc1ccco1`, the EC50 in [3] was > 260 µM (inactive). In the case of `COCCn1c(C)cc(C(=O)COC(=O)c2ccc(-n3nc(C)cc3C)cc2)c1C`, in [3], the EC50 was > 260 µM (inactive). In the case of `CC(C)(C)OC(=O)NCCCCCNC(=O)c1[nH]cnc1C(=O)N[C@@H](CCCCNC(=O)OC(C)(C)C)C(=O)OC(C)(C)C`, in assay [4], the IC50 is recorded as 10.7 µM (not active). As to `CC(C)(C)C(=O)Cn1ncc(Cl)c(Cl)c1=O`, the AC50 in [5] was 10.4 µM (active). As to `Nc1cc([N+](=O)[O-])ccc1C(=O)O`, the AC50 at Cytochrome P450 3A4 was 10 µM (inconclusive). Turning to `Cc1cc(OCC(=O)N(Cc2ccco2)C2CCS(=O)(=O)C2)cc(C)c1Cl` (stereo not drawn), the EC50 in assay [3] was > 260 µM (inactive). The same measure, in the same setting: next, `CC1(C)CC(CCN)(Cc2ccccc2Cl)CCO1` (stereo not drawn): > 260 µM (inactive); `COc1cc(/C=N/Nc2snc(SC)c2C#N)ccc1O`: > 260 µM (inactive); `Nc1nnnn1CC(=O)N/N=C/c1ccccn1`: > 260 µM (inactive). With `CCc1nnc(N/N=C/c2cc(Br)c(O)cc2O)n1N`, the AC50 in assay [6] is > 380 µM (inactive). The EC50 at Protein RecA is 9.31 µM (active). In addition, the IC50 on Nonstructural protein 1 is 6.41 µM (active); in assay [7], 66.2 µM (active). `O=[N+]([O-])c1ccc2cn[nH]c2c1`: the concentration at half-maximal activity (AC50) at Cytochrome P450 3A4 is 12.6 µM (inconclusive). `Cc1ccc(Cl)cc1N`: the AC50 on Cytochrome P450 3A4 was 31.6 µM (inconclusive).

Consider `Cc1cc(=O)oc2cc(O)c(O)cc12` [4-METHYLESCULETIN], for which, on Cytochrome P450 3A4, the half-maximal activity concentration (AC50) was 15.8 µM (inconclusive). The same measure, in the same setting: then `CC1=C(/C=C/C(C)=C/C=C/C(C)=C/CO)C(C)(C)CCC1` [RETINOL], with 15.8 µM (inconclusive).

On to `C[C@]12CCC(=O)C[C@@H]1CC[C@@H]1[C@@H]2CC[C@]2(C)[C@@H](O)CC[C@@H]12` [STANOLONE], for which the AC50 on Cytochrome P450 3A4 is 15.8 µM (inconclusive).
